The assay addresses PDE V isoenzyme (Homo sapiens, UniProt O76074). As to the kind of experiment: PDE V isoenzyme inhibition (PDE V IC50). It is filed as biochemical. The note with it: bound printed as 'about <'. The text has this:
The compounds of the invention can be useful for inhibiting PDE V isoenzymes. Isoenzyme activity (potency) and isoenzyme selectivity for a compound can be evaluated in a number of ways. […] Similarly, an IC50 value may be obtained for other PDE isoenzymes, such as the PDE VI isoenzyme. Isoenzyme selectivity in this respect may be defined as the activity (potency) of a PDE inhibitor compound for a particular PDE isoenzyme as opposed to another PDE isoenzyme, for example, the activity of a compound to inhibit a PDE V isoenzyme compared to the activity of the same compound to inhibit a PDE VI isoenzyme.

Structures are written as SMILES. pIC50: −log10 of the molar value.

One may read the pIC50 as the negative decadic logarithm of the IC50, by convention in mol/L. Read a low pIC50 as a high IC50. With `CCN1C(=O)c2c(nc(Br)n2Cc2ccc(OC)c(Br)c2)N2C[C@@H](Cc3ccccc3)N=C12` [Compound 1.3.2], the pIC50 is over 8.39.
With `CCOc1nc2c(n1Cc1ccc(OC)c(Cl)c1)C(=O)N(CC)C1=N[C@H](Cc3ccccc3)CN12` [Compound 1] the figure was over 8.66; with `CCN1C(=O)c2c(nc(OC)n2Cc2ccc(OC)c(Cl)c2)N2C[C@@H](Cc3ccccc3)N=C12` [Compound 2], over 8.80; with `CCN1C(=O)c2c(nc(OC)n2Cc2ccc(OC)c(Br)c2)N2C[C@@H](Cc3ccccc3)N=C12` [Compound 3], over 8.39.
With `CCN1C(=O)c2c(nc(Br)n2Cc2ccc(O)c(Br)c2)N2C1=N[C@@H]1CCC[C@@H]12` [Compound 4] the figure was over 8.80.
Compound `CCN1C(=O)c2c(nc(OC)n2Cc2ccc(O)c(Br)c2)N2C1=N[C@@H]1CCC[C@@H]12` [Compound 5] showed a pIC50 of over 8.80.
As for `CCN1C(=O)c2c(nc(OC)n2Cc2ccc(O)c(Cl)c2)N2C1=N[C@@H]1CCC[C@@H]12` [Compound 6], the figure is over 8.39; as for `CCN1C(=O)c2c(nc(OC)n2Cc2ccc(O)cc2)N2C[C@@H](Cc3ccccc3)N=C12` [Compound 8], over 8.60; as for `CCN1C(=O)c2c(nc(C(=O)NC)n2Cc2ccc(O)c(Cl)c2)N2C[C@@H](Cc3ccccc3)N=C12` [Compound 9], over 8.39.
In turn, `CCN1C(=O)c2c(nc(C(N)=O)n2Cc2ccc(O)c(Cl)c2)N2C[C@@H](Cc3ccccc3)N=C12` [Compound 10] showed a pIC50 of over 8.39.
With `CCN1C(=O)c2c(nc(C(=O)OC)n2Cc2ccc(O)c(Cl)c2)N2C[C@@H](Cc3ccccc3)N=C12` [Compound 11] the figure was over 8.80; with `CCN1C(=O)c2c(nc(Br)n2Cc2ccc(O)c(Cl)c2)N2C[C@@H](Cc3ccccc3)N=C12` [Compound 12], over 8.39.
With `CCN1C(=O)c2c(nc(Br)n2Cc2ccc(O)c(Br)c2)N2C[C@@H](Cc3ccccc3)N=C12` [Compound 13] the figure was over 8.39; with `CCN1C(=O)c2c(nc(Cl)n2Cc2ccc(O)cc2)N2C[C@@H](Cc3ccccc3)N=C12` [Compound 15], over 8.39.
With `CCOc1nc2c(n1Cc1ccc(O)c(Cl)c1)C(=O)N(CC)C1=N[C@H](Cc3ccccc3)CN12` [Compound 16] the figure was over 8.80.
For the compound `CCN1C(=O)c2c(nc(OC)n2Cc2ccc(O)c(Cl)c2)N2C[C@@H](Cc3ccccc3)N=C12` [Compound 17], the pIC50 was over 8.80.
With `CCN1C(=O)c2c(nc(OC)n2Cc2ccc(O)c(Br)c2)N2C[C@@H](Cc3ccccc3)N=C12` [Compound 18] the figure was over 8.80; with `CCOc1nc2c(n1Cc1ccc(O)c(Cl)c1)C(=O)N(CC)C1=N[C@H](C(C)C)CN12` [Compound 19], over 8.39.
For `CCN1C(=O)c2c(nc(Br)n2Cc2ccc(O)c(Cl)c2)N2C[C@@H](Cc3ccc(F)cc3)N=C12` [Compound 21], the pIC50 is over 8.66.
As for `CCOc1nc2c(n1Cc1ccc(O)c(Br)c1)C(=O)N(CC)C1=N[C@H](Cc3ccccc3F)CN12` [Compound 22], the figure is over 8.39.
With `CCN1C(=O)c2c(nc(Br)n2Cc2ccc(O)c(Br)c2)N2C[C@@H](Cc3cccc(F)c3)N=C12` [Compound 23] the figure was over 8.39.
